Drawing on ChEMBL document CHEMBL3997773, “Synthesis of C-4-Substituted Steviol Derivatives and Their Inhibitory Effects against Hepatitis B Virus” (J Nat Prod, 2016), this text covers IC50, selectivity ratio and CC50 for seven molecules.

The first data set is described as follows: Antiviral activity against Hepatitis B virus subtype adw2 infected in human HepG2.2.15 cells assessed as inhibition of HBeAg secretion by EIA.
Settings: not given
One may read the IC50 as the concentration at which inhibition is half-maximal. For the molecule `C=C1C[C@@]23CC[C@H]4[C@@](C)(CCC[C@@]4(C)NC(=O)Nc4ccc(Cl)cc4)[C@@H]2CC[C@]1(O)C3`, the IC50 was 5 µM.

In the case of `C=C1C[C@@]23CC[C@H]4[C@@](C)(CCC[C@@]4(C)N)[C@@H]2CC[C@]1(O)C3`, the 50% inhibitory concentration (IC50) amounted to 31.2 µM.

For the molecule `C=C1C[C@@]23CC[C@H]4[C@@](C)(CCC[C@@]4(C)N=C=O)[C@@H]2CC[C@]1(O)C3`, the IC50 turned out to be 28.5 µM.

As to `C=C1C[C@@]23CC[C@H]4[C@@](C)(CCC[C@@]4(C)NC(=O)Nc4ccc(OC)cc4)[C@@H]2CC[C@]1(O)C3`, the half-inhibitory concentration (IC50) fell in the range of 7.7 to 13.6 µM.

For `C=C1C[C@@]23CC[C@H]4[C@@](C)(CCC[C@@]4(C)NC(=O)Nc4ccc(OC)c(OC)c4)[C@@H]2CC[C@]1(O)C3`, the 50% inhibitory concentration (IC50) is 7.7 to 13.6 µM.

On to `C=C1C[C@@]23CC[C@H]4[C@@](C)(CCC[C@@]4(C)NC(=O)c4ccc(C#N)cc4)[C@@H]2CC[C@]1(O)C3`, for which the IC50 worked out at 13.6 µM.

On to `C=C1C[C@@]23CC[C@H]4[C@@](C)(CCC[C@@]4(C)C(=O)O)[C@@H]2CC[C@]1(O)C3` [STEVIOL], for which the IC50 is 16.6 µM.

Another data set can be described thus: Antiviral activity against Hepatitis B virus subtype adw2 infected in human HuH7 cells assessed as inhibition of viral DNA replication by RT-PCR method. Format: functional, cell-based. The note with it: Huh-7.
With `C=C1C[C@@]23CC[C@H]4[C@@](C)(CCC[C@@]4(C)N=C=O)[C@@H]2CC[C@]1(O)C3`, the IC50 came to 30 µM.

For `C=C1C[C@@]23CC[C@H]4[C@@](C)(CCC[C@@]4(C)C(=O)O)[C@@H]2CC[C@]1(O)C3` [STEVIOL], the half-maximal inhibitory concentration (IC50) was 19.9 µM.

A short description of another data set: Antiviral activity against Hepatitis B virus in human HepG2.2.15 cells assessed as inhibition of HBsAg secretion by EIA.
Settings: not given
With `C=C1C[C@@]23CC[C@H]4[C@@](C)(CCC[C@@]4(C)N)[C@@H]2CC[C@]1(O)C3`, the IC50 is 30.7 µM.

Regarding `C=C1C[C@@]23CC[C@H]4[C@@](C)(CCC[C@@]4(C)N=C=O)[C@@H]2CC[C@]1(O)C3`, the IC50 was determined as 19.1 µM.

Take `C=C1C[C@@]23CC[C@H]4[C@@](C)(CCC[C@@]4(C)NC(=O)Nc4ccc(OC)cc4)[C@@H]2CC[C@]1(O)C3`: the IC50 is 11.7 to 14 µM.

Turning to `C=C1C[C@@]23CC[C@H]4[C@@](C)(CCC[C@@]4(C)NC(=O)Nc4ccc(OC)c(OC)c4)[C@@H]2CC[C@]1(O)C3`, the IC50 lay in the range of 11.7 to 14 µM.

Another data set in a line: Selectivity index, ratio of TC50 for human HepG2.2.15 cells to IC50 for Hepatitis B virus subtype adw2 infected in human HuH7 cells assessed as inhibition of HBsAg secretion.
Settings: not given
Regarding `C=C1C[C@@]23CC[C@H]4[C@@](C)(CCC[C@@]4(C)N)[C@@H]2CC[C@]1(O)C3`, the selectivity ratio worked out at 5.5.

Take `C=C1C[C@@]23CC[C@H]4[C@@](C)(CCC[C@@]4(C)N=C=O)[C@@H]2CC[C@]1(O)C3`: the selectivity ratio worked out at 17.6.

For the molecule `C=C1C[C@@]23CC[C@H]4[C@@](C)(CCC[C@@]4(C)NC(=O)c4ccc(C#N)cc4)[C@@H]2CC[C@]1(O)C3`, the selectivity ratio came to 15.1.

For the molecule `C=C1C[C@@]23CC[C@H]4[C@@](C)(CCC[C@@]4(C)C(=O)O)[C@@H]2CC[C@]1(O)C3` [STEVIOL], the selectivity ratio worked out at 22.8.

A further data set is described as follows: Selectivity index, ratio of TC50 for human HepG2.2.15 cells to IC50 for Hepatitis B virus subtype adw2 infected in human HepG2.2.15 cells assessed as inhibition of HBeAg secretion.
Settings: not given
As to `C=C1C[C@@]23CC[C@H]4[C@@](C)(CCC[C@@]4(C)N)[C@@H]2CC[C@]1(O)C3`, the selectivity ratio was determined as 5.4.

As for `C=C1C[C@@]23CC[C@H]4[C@@](C)(CCC[C@@]4(C)N=C=O)[C@@H]2CC[C@]1(O)C3`, the selectivity ratio is 11.8.

For the molecule `C=C1C[C@@]23CC[C@H]4[C@@](C)(CCC[C@@]4(C)NC(=O)c4ccc(C#N)cc4)[C@@H]2CC[C@]1(O)C3`, the selectivity ratio amounted to 9.2.

Take `C=C1C[C@@]23CC[C@H]4[C@@](C)(CCC[C@@]4(C)C(=O)O)[C@@H]2CC[C@]1(O)C3` [STEVIOL]: the selectivity ratio came to 28.6.

A further data set is described as follows: Antiviral activity against Hepatitis B virus subtype adw2 infected in human HuH7 cells assessed as inhibition of HBsAg secretion by EIA. Format: functional, cell-based. The note with it: Huh-7.
For the molecule `C=C1C[C@@]23CC[C@H]4[C@@](C)(CCC[C@@]4(C)NC(=O)Nc4ccc(Cl)cc4)[C@@H]2CC[C@]1(O)C3`, the IC50 stood at 8 µM.

On to `C=C1C[C@@]23CC[C@H]4[C@@](C)(CCC[C@@]4(C)NC(=O)c4ccc(C#N)cc4)[C@@H]2CC[C@]1(O)C3`, for which the IC50 came to 8.3 µM.

Take `C=C1C[C@@]23CC[C@H]4[C@@](C)(CCC[C@@]4(C)C(=O)O)[C@@H]2CC[C@]1(O)C3` [STEVIOL]: the concentration for half-maximal inhibition (IC50) is 20.8 µM.

The next data set in a line: Antiviral activity against Hepatitis B virus in human HepG2.2.15 cells assessed as inhibition of viral DNA replication by RT-PCR method.
Settings: not given
With `C=C1C[C@@]23CC[C@H]4[C@@](C)(CCC[C@@]4(C)N)[C@@H]2CC[C@]1(O)C3`, the IC50 was 35.8 µM.

Turning to `C=C1C[C@@]23CC[C@H]4[C@@](C)(CCC[C@@]4(C)NC(=O)c4ccc(C#N)cc4)[C@@H]2CC[C@]1(O)C3`, the IC50 amounted to 9 µM.

A further data set is described as follows: Cytotoxicity against human HepG2.2.15 cells assessed as reduction in cell viability after 3 days by MTS assay. The note with it: read-out: TC50. (Tetrazolium dyes change colour on reduction, which living cells bring about.)
`C=C1C[C@@]23CC[C@H]4[C@@](C)(CCC[C@@]4(C)N)[C@@H]2CC[C@]1(O)C3`: the CC50 at 72 h came to 169 µM.

As for `C=C1C[C@@]23CC[C@H]4[C@@](C)(CCC[C@@]4(C)N=C=O)[C@@H]2CC[C@]1(O)C3`, the CC50 at 72 h stood at 337 µM.

As to `C=C1C[C@@]23CC[C@H]4[C@@](C)(CCC[C@@]4(C)NC(=O)c4ccc(C#N)cc4)[C@@H]2CC[C@]1(O)C3`, the CC50 at 72 h worked out at 125 µM.

Regarding `C=C1C[C@@]23CC[C@H]4[C@@](C)(CCC[C@@]4(C)C(=O)O)[C@@H]2CC[C@]1(O)C3` [STEVIOL], the CC50 at 72 h was determined as 474 µM.

A further data set in a line: Antiviral activity against Hepatitis B virus subtype adw2 in human HepG2.2.15 cells assessed as inhibition of viral DNA replication by RT-PCR method.
Settings: not given
For the molecule `C=C1C[C@@]23CC[C@H]4[C@@](C)(CCC[C@@]4(C)NC(=O)Nc4ccc(Cl)cc4)[C@@H]2CC[C@]1(O)C3`, the half-maximal inhibitory concentration (IC50) stood at 4.5 µM.

As for `C=C1C[C@@]23CC[C@H]4[C@@](C)(CCC[C@@]4(C)NC(=O)Nc4ccc(OC)cc4)[C@@H]2CC[C@]1(O)C3`, the 50% inhibitory concentration (IC50) is 14.7 µM.

Consider `C=C1C[C@@]23CC[C@H]4[C@@](C)(CCC[C@@]4(C)NC(=O)Nc4ccc(OC)c(OC)c4)[C@@H]2CC[C@]1(O)C3`, for which the 50% inhibitory concentration (IC50) was 14.3 µM.

Another data set can be described thus: Selectivity index, ratio of TC50 for human HepG2.2.15 cells to IC50 for Hepatitis B virus subtype adw2 infected in human HuH7 cells assessed as inhibition of viral DNA replication.
Settings: not given
With `C=C1C[C@@]23CC[C@H]4[C@@](C)(CCC[C@@]4(C)NC(=O)Nc4ccc(Cl)cc4)[C@@H]2CC[C@]1(O)C3`, the selectivity ratio came to 6.6.

For the molecule `C=C1C[C@@]23CC[C@H]4[C@@](C)(CCC[C@@]4(C)N)[C@@H]2CC[C@]1(O)C3`, the selectivity ratio was 4.7.

As to `C=C1C[C@@]23CC[C@H]4[C@@](C)(CCC[C@@]4(C)N=C=O)[C@@H]2CC[C@]1(O)C3`, the selectivity ratio stood at 11.2.

Turning to `C=C1C[C@@]23CC[C@H]4[C@@](C)(CCC[C@@]4(C)NC(=O)c4ccc(C#N)cc4)[C@@H]2CC[C@]1(O)C3`, the selectivity ratio was found to be 13.9.

`C=C1C[C@@]23CC[C@H]4[C@@](C)(CCC[C@@]4(C)C(=O)O)[C@@H]2CC[C@]1(O)C3` [STEVIOL]: the selectivity ratio is 23.8.
